What was measured:
Type in all cases: in vivo
[1] = test system: barnyardgrass (Echinochloa crusgalli); experiment: Example 18, Procedure II: Herbicide No. 1 + ERADICANE (EPTC + R-25788) with auxiliary antidotes
Method: (§1) Containers were filled and compacted with a fumigated silt loam top soil to a depth of about 1.3 cm from the top of the container. A first container was designated as an untreated control, a second container was designated as a herbicide control, and a third container was designated as a herbicide + antidote test container. Each of the containers was seeded with a crop species. A measured amount of herbicide dispersed or dissolved in acetone was applied to a measured quantity of soil. To this same quantity of soil treated with herbicide, there was added a measured amount of antidote dispersed or dissolved in acetone. The quantity of soil treated with the herbicide and antidote was thoroughly mixed to incorporate the herbicide and antidote in the soil uniformly. The seed bed in the third container of soil was covered with the soil treated with the herbicide and antidote and the container was leveled. For each test series, the seed beds of the first and second containers were likewise covered by soil layers. the cover layer of the first container was not treated with herbicide or antidote.
(§2) The containers were then placed on a bench in a greenhouse and sub-irrigated as required for the duration of the test. […] Plant response is measured in terms of percent injury. Antidote efficacy is indicated as the difference in plant injury by the herbicide(s) without the antidote and with the antidote.
(§3) This procedure is the same as Procedure I, but modified in the manner that after incorporation of the chemicals (herbicide and antidote) the containers with the covered seedbed were treated with an initial overhead irrigation equivalent to 0.6 cm rainfall, then subsequently sub-irrigated as required on greenhouse benches.
(§4) In the series of greenhouse tests described below, for routine screening purposes the herbicide/antidote compositions were tested in crop/weed combinations involving corn as the crop and either or both of the weeds barnyardgrass (Echinochloa crusgalli), a monocotyledonous weed, and velvetleaf (Abutilon theophrasti), a dicotyledonous weed. In the tables below, these weeds are indicated by the symbols "BYG" and "VL", respectively.
(§5) In the test reported in this example, the herbicidal composition was similar to that used in Example 16 in that Herbicide No. 1 was combined with EPTC (Herbicide No. 4) as a co-herbicide and the antidotes included Nos. 1, 2, 7, 13 and 15. However, in this test the EPTC was introduced as a formulation of ERADICANE (EPTC + the antidote R-25788, i.e., Antidote No. 1) at an application rate of 8.96 kg/ha. Thus, in this test two antidotes were present, viz. R-25788 and one of the auxilliary antidotes, No. 2, 13 and 15.
(§6) Test procedures were those of Procedure II above.

[2] = test system: velvetleaf (Abutilon theophrasti); experiment: as above
Method: as §1, §2, §3, §4, §5, §6

[3] = test system: velvetleaf (Abutilon theophrasti); experiment: Example 22: retest of Example 21 at reduced greenhouse temperatures; details: Table 22
Outline: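 Corn crop with barnyardgrass and velvetleaf seeded in silt loam; butylate plus antidote […] and test antidote in acetone incorporated into soil cover layer (Procedure II: 0.6 cm overhead irrigation, then sub-irrigation). Greenhouse temperatures reduced. Percent injury scored; antidote efficacy is the injury difference with vs. without antidote.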

[4] = Herbicide No.1 0.56 kg/ha + ERADICANE 8.96 kg/ha, antidote 2.24 kg/ha
[5] = Herbicide No.1 0.56 kg/ha + ERADICANE 8.96 kg/ha, antidote 8.96 kg/ha
[6] = Herbicide No.1 1.12 kg/ha + ERADICANE 8.96 kg/ha, antidote 2.24 kg/ha
[7] = Herbicide No.1 1.12 kg/ha + ERADICANE 8.96 kg/ha, antidote 8.96 kg/ha
[8] = Herbicide No.1 0.56 Kg/ha + SUTAN + 8.96 Kg/ha + antidote 2.24 Kg/ha
[9] = Herbicide No.1 0.56 Kg/ha + SUTAN + 8.96 Kg/ha + antidote 8.96 Kg/ha
[10] = Herbicide No.1 1.12 Kg/ha + SUTAN + 8.96 Kg/ha + antidote 2.24 Kg/ha
[11] = Herbicide No.1 1.12 Kg/ha + SUTAN + 8.96 Kg/ha + antidote 8.96 Kg/ha

| SMILES | % Injury BYG [1, 4] [%] | % Injury BYG [1, 5] [%] | % Injury BYG [1, 6] [%] | % Injury BYG [1, 7] [%] | % Injury VL [2, 4] [%] | % Injury VL [2, 5] [%] | % Injury VL [2, 6] [%] | % Injury VL [2, 7] [%] | % Injury VL [3, 8] [%] | % Injury VL [3, 9] [%] | % Injury VL [3, 10] [%] | % Injury VL [3, 11] [%] |
| --- | --- | --- | --- | --- | --- | --- | --- | --- | --- | --- | --- | --- |
| CC1(C(Cl)Cl)OCCO1 [compound 13] | 85 | 85 | 85 | 90 | 80 | 80 | 75 | 75 | 85 | 95 | 95 | 90 |
| C=CCN(CC=C)C(=O)C(Cl)Cl [compound 1] | 90 | 90 | 90 | 85 | 85 | 85 | 75 | 75 | 80 | 80 | 80 | 80 |
| O=C1OC(=O)c2cccc3cccc1c23 [compound 2] | 93 | 85 | 85 | 95 | 80 | 93 | 70 | 75 | 80 | 90 | 93 | 90 |
| O=C(C(Cl)Cl)N1CCOC12CCCCC2 [compound 7] | 90 | 85 | 85 | 85 | 75 | 80 | 70 | 75 | 80 | 75 | 97 | 70 |

Reference: EP0603240B1, “SAFENING HERBICIDAL PYRAZOLYLSULFONYLUREAS” (priority 1991, dated 1993)
